Data: patent US5004756A, “Anti-cancer activity potentiator” (priority 1988, dated 1991)
Values after ≈ are worked out from the molar mass of the structure shown. Like-named read-outs stand apart in the source and are kept apart here.

Tests used:
L5178Y/S = assay: Anti-cancer activity potentiating action, colony formation, mouse leukemia sensitive cells (table head prints PLC/S); format: cell-based; settings: head prints PLC/S (parent cells); for IC50: Mus musculus, L5178Y
Protocol: (§1) The anti-cancer activity potentiating action of the malate of formula (I) was examined using Chinese hamster cells (sensitive cell line V79/S and ADM-resistant cell line V79/ADM), human hepatoma cells (sensitive cell line PLC/S and colchicin-resistant cell line PLC/Col) and mouse leukemia cells (sensitive cell line L5178Y/S) and aclarubicin-resistant cell line L5178Y/ACR).
(§2) Of these tumor cells, the sensitive cells (400 cells) and the resistant cells (600 cells) were each incubated in 10 ml of Eagle's MEM medium containing 10% bovine serum for 24 hours, and then each of the test drugs indicated in Table 6 was added. Thereafter, the incubation was carried out for 9 days. The concentration (IC50 : micrograms/ml) of the test drug required to inhibit 50% of the colony formation (proliferation) of the tumor cells was calculated.
(§3) Adriamycin (ADM) and aclarubicin (ACR) as anti-cancer agents were used in combination with 20 micrograms/ml of the malate of formula (I).

[1] = system: clinically isolated human cancer cells (lung adenocarcinoma, lung squamous cell carcinoma, osteosarcoma, ovarian carcinoma); assay: Anti-tumor activity on clinically isolated human cancer cells, morphological changes (A-I Part 2); format: cell-based; settings: 0.2 μg/ml
Protocol: Lung adenocarcinoma, lung squamous cell carcinoma, osteosarcoma and ovarian carcinoma were selected as clinically isolated human cancer cells, and the anti-tumor activities of various drugs were examined. Specifically, various tumor tissues were individually cut to thin pieces by a razor, and by washing in saline by using a 1 mm mesh, the connective tissues were removed. The resulting solution was centrifuged at 1000 rpm for 1 minute to remove necrotizing substances. Washing with saline gave tumor cells.
They were incubated at 37° for 4 to 8 hours. Thereafter, pumping was carried out to disperse the tissue pieces. Then, centrifugation at 1000 rpm for 5 minutes, cell coating and Giemsa staining were performed. The anti-tumor activity of each drug was examined on the basis of observation of the morphological changes of the tumor cells under a microscope.
The experiment was conducted on two examples of each tumor cells (total 8 examples).

V79/S [2] = assay: Colony formation (proliferation) inhibition, sensitive Chinese hamster cells (A-I Part 1); format: cell-based
Protocol: (§4) Sensitive cell line V79/S and ADM-resistant cell line V79/ADM of the Chinese hamster were used, and sensitive cell line PLC/S and cholchicin-resistant cell line PLC/Col, as human hepatoma cells.
(§5) The sensitive cell lines (400 cells) or the resistant cell lines (600 cells) were each incubated for 24 hours in 10 ml of Eagle's MEM medium containing 10% bovine serum. Each of the drugs indicated in Table 1 below was dissolved in ethanol, and 50 microliters of the resulting solution was added to the medium. The incubation was further carried out for 9 days. The concentration of the drug which inhibits 50% of the colony formation (proliferation) of the tumor cells was calculated.
(§6) V79/S and V79/ADM were tested by using all of the drugs described above, but PLC/S and PLC/Col were tested by using only the malate of formula (I), adriamycin and peplomycin.
(§7) The concentrations (micrograms/ml) required to inhibit 50% of the proliferation of the tumor cells, expressed by IC50, are shown in Table 1.

V79/ADM [3] = assay: Anti-cancer activity potentiating action, colony formation, V79/ADM resistant cells (A-III); format: cell-based, Chinese hamster; settings: for IC50: Cricetulus griseus
Protocol: as §1, §2
(§8) (A) Chinese hamster V79 cells
(§9) As anti-cancer agents, there were used adriamycin (ADM), aclarubicin (ACR), actinomycin D (ACD), 5-fluorouracil (5-FU), cytarabin (Ara-C), cisplatin (CDDP), methotrexate (MTX), mitomycin C (MMC), nimustine (ACNU), mitoxantrone, etoposide ([…]), vincristine (VCR), bleomycin (BLM) and peplomycin (PEP). For the sensitive cells, the anti-cancer agents were used in combination with 10 micrograms/ml of the malate of formula (I), and for the resistant cells, the anti-cancer agents were used in combination with the malate of formula (I) 3 micrograms/ml, 5 micrograms/ml, and 10 micrograms/ ml.

V79/ADM [4] = assay: Colony formation (proliferation) inhibition, ADM-resistant Chinese hamster cells (A-I Part 1); format: cell-based
Protocol: as §4, §5, §6, §7

L5178Y/ACR = assay: Anti-cancer activity potentiating action, colony formation, aclarubicin-resistant mouse leukemia cells (table head prints PLC/ACR); format: cell-based; settings: for IC50: Mus musculus, L5178Y
Protocol: as §1, §2, §3

V79/S [5] = assay: Anti-cancer activity potentiating action, colony formation, V79/S parent cells (A-III); format: cell-based, Chinese hamster; settings: for IC50: Cricetulus griseus
Protocol: as §1, §2, §8, §9

[6] = system: human tumor cells (muscle fibrosarcoma HT-1080); assay: Anti-cancer activity potentiating action in nude mice with HT-1080 (A-VI); format: in vivo, human tumor in ICR nude mice; settings: MMC 3 mg/kg, days 5, 10, 15, 20; day 36
Protocol: ICR nude mice, 6 per group, were used, and the experiment was conducted substantially in accordance with the procedure described in A-V.
As tumor cells, human tumor cells (muscle fibrosarcoma HT-1080) were used, and 5 days after the transplantation, drug administration was started.
The administration was further performed every 5 days from the day of starting the administration, and the total number of administrations was therefore 4.
Mitomycin C (MMC) was tested by the same way as above.
Thirty-six days after the transplantation of the tumor, a tumor mass was extracted and its weight was measured. From the difference of the weight of the tumor from the non-treated control group, the tumor growth inhibition ratio (%) was calculated.

Meth-A = assay: Tumor proliferation inhibiting activity, Meth-A (A-IV); format: in vivo, BALB/c rats; settings: MMC 1.0 mg/kg/day, days 1-5
Protocol: Female BALB/c rats (7 weeks old), 8 per group, were used. Tumor cells (Meth-A) induced by methyl cholanthrene were transplanted intraperitoneally to the rats, and then the malate of formula (I) was administered intraperitoneally to the rats. The proliferation inhibiting activity of the malate was examined by comparing the weight of the tumor cells with that of the tumor cells in the non-treated control group.
The dose of the malate of formula (I) was 1.25, 2.5, 5.0, and 10.0 mg/kg/day. Mitomycin C (MMC) was administered as another anti-cancer agent. The weight of the tumor cells was measured, and the proliferation inhibiting activity was determined.
The weight (g) of the tumor with respect to that of the tumor in the control group (T/C, %) after 16 days from the transplantation of the tumor cells, and the number of surviving rats after 16 days are shown in Table 8.

PLC/Col [7] = assay: Anti-cancer activity potentiating action, colony formation, PLC/Col resistant cells (A-III); format: cell-based, human; settings: PLC/Col; with compound (I) 5 μg/ml
Protocol: as §1, §2
(§10) As anti-cancer agents, adriamycin (ADM) and peplomycin (PEP) were used in combination with the malate of formula (I) (5 micrograms/ml).

PLC/S [8] = assay: Anti-cancer activity potentiating action, colony formation, PLC/S parent cells (A-III); format: cell-based, human; settings: PLC/S; with compound (I) 5 μg/ml
Protocol: as §1, §2, §10

PLC/S [9] = assay: Colony formation (proliferation) inhibition, sensitive human hepatoma cells (A-I Part 1); format: cell-based; settings: PLC/S; 9 days; Table 1
Protocol: as §4, §5, §6, §7

PLC/Col [10] = assay: Colony formation (proliferation) inhibition, colchicin-resistant human hepatoma cells (A-I Part 1); format: cell-based; settings: PLC/Col; 9 days; Table 1
Protocol: as §4, §5, §6, §7

[11] = alone, Table 7 lower part, read-out: IC50, anti-cancer agent alone
[12] = with compound (I) 20 μg/ml, read-out: IC50 in combination with compound (I)
[13] = read-out: IC50, anti-cancer agent alone
[14] = read-out: IC50 in combination with compound (I)
[15] = V79/S, with compound (I) 10 μg/ml
[16] = V79/ADM, with compound (I) 3 μg/ml

CC[C@@]1(O)C[C@H](O[C@H]2C[C@H](N(C)C)[C@H](O[C@H]3C[C@H](O)[C@H](O[C@H]4CCC(=O)[C@H](C)O4)[C@H](C)O3)[C@H](C)O2)c2c(cc3c(c2O)C(=O)c2c(O)cccc2C3=O)[C@H]1C(=O)OC [ACR, aclarubicin]
IC50 (L5178Y/S; [11]): 0.019 µg/mL
IC50 (L5178Y/S; [12]): 0.017 µg/mL
Potentiation activity (L5178Y/S; with compound (I) 20 μg/ml): 1.0 times
Efficacy ratio (rated significant by Fisher's test) [1]: 2/8
IC50 (V79/S [2]; Cricetulus griseus, 216 h): 0.037 µg/mL (≈ 0.0456 µM)
IC50 (V79/ADM [3]; [13]): 0.27 µg/mL
IC50 (V79/ADM [3]; [14]): 0.024 µg/mL
Potentiation activity (V79/ADM [3]; V79/ADM, with compound (I) 10 μg/ml): 11.3 times
IC50 (V79/ADM [4]; Cricetulus griseus, 216 h): 0.27 µg/mL (≈ 0.333 µM)
IC50 (L5178Y/ACR; [11]): 0.07 µg/mL
IC50 (L5178Y/ACR; [12]): 0.043 µg/mL
Potentiation activity (L5178Y/ACR; with compound (I) 20 μg/ml): 1.8 times
IC50 (V79/S [5]; [13]): 0.037 µg/mL
IC50 (V79/S [5]; [14]): 0.027 µg/mL
Potentiation activity (V79/S [5]; [15]): 1.37 times

CO[C@@]12[C@H](COC(N)=O)C3=C(C(=O)C(C)=C(N)C3=O)N1C[C@@H]1N[C@@H]12 [MMC, mitomycin C]
Tumor growth inhibition ratio [6]: 47.0%
Tumor weight [6]: 1.92 ± 0.27
Efficacy ratio (rated significant by Fisher's test) [1]: 0/8
IC50 (V79/ADM [3]; V79/ADM, alone, Table 6, read-out: IC50, anti-cancer agent alone): 0.057 µg/mL
IC50 (V79/ADM [3]; V79/ADM, with compound (I) 5 μg/ml, read-out: IC50 in combination with compound (I)): 0.011 µg/mL
Potentiation activity (V79/ADM [3]; V79/ADM, with compound (I) 5 μg/ml): 5.20 times
IC50 (V79/S [5]; [14]): 0.01 µg/mL
IC50 (V79/S [5]; V79/S, alone, Table 6, read-out: IC50, anti-cancer agent alone): 0.02 µg/mL
Potentiation activity (V79/S [5]; [15]): 2.0 times
Number of surviving animals (Meth-A; 16 days later): 8/8
T/C (tumor weight) (Meth-A; day 16): 21%
Tumor weight mean ± S.D. (Meth-A; day 16): 0.347 ± 0.185 g

Cc1c(N)nc([C@H](CC(N)=O)NC[C@H](N)C(N)=O)nc1C(=O)N[C@H](C(=O)N[C@H](C)[C@@H](O)[C@H](C)C(=O)N[C@H](C(=O)NCCc1nc(-c2nc(C(=O)NCCCN[C@@H](C)c3ccccc3)cs2)cs1)[C@@H](C)O)[C@@H](O[C@@H]1O[C@@H](CO)[C@@H](O)[C@H](O)[C@@H]1O[C@H]1O[C@H](CO)[C@@H](O)[C@H](OC(N)=O)[C@@H]1O)c1c[nH]cn1 [PEP, peplomycin]
Potentiation activity (PLC/Col [7]): 6.3 times
Potentiation activity (PLC/S [8]): 3.0 times
IC50 (V79/S [2]; V79/S, 9 days, Table 1): 1.95 µg/mL (≈ 1.32 µM)
IC50, anti-cancer agent alone (V79/ADM [3]; V79/ADM, alone, Table 6): 0.48 µg/mL
IC50 in combination with compound (I) (V79/ADM [3]; [16]): 0.0157 µg/mL
Potentiation activity (V79/ADM [3]; [16]): 30.5 times
IC50 (V79/ADM [4]; V79/ADM, 9 days, Table 1): 0.48 µg/mL (≈ 0.326 µM)
IC50, anti-cancer agent alone (V79/S [5]; V79/S, alone, Table 6): 1.95 µg/mL
IC50 in combination with compound (I) (V79/S [5]; [15]): 0.0165 µg/mL
Potentiation activity (V79/S [5]; [15]): 118 times
IC50 (PLC/S [9]): 0.24 µg/mL (≈ 0.163 µM)
IC50 (PLC/Col [10]): 0.19 µg/mL (≈ 0.129 µM)
